Results on five compounds are retold here after ChEMBL document CHEMBL3886855, “Pyrazine derivatives” (2016).

The target in assay [1] is Cannabinoid receptor 2 (Homo sapiens, UniProt P34972). Briefly: (§1) cAMP Assay: CHO cells expressing human CB1 or CB2 receptors are seeded 17-24 hours prior to the experiment 50.000 cells per well in a black 96 well plate with flat clear bottom (Corning Costar #3904) in DMEM (Invitrogen No. 31331), 1×HT supplement, with 10% fetal calf serum and incubated at 5% CO2 and 37° C. in a humidified incubator. The growth medium was exchanged with Krebs Ringer Bicarbonate buffer with 1 mM IBMX and incubated at 30° C. for 30 min. Compounds were added to a final assay volume of 100 μl and incubated for 30 min at 30° C. Using the cAMP-Nano-TRF detection kit the assay (Roche Diagnostics) was stopped by the addition of 50 μl lysis reagent (Tris, NaCl, 1.5% Triton X100, 2.5% NP40, 10% NaN3) and 50 μl detection solutions (20 μM mAb Alexa700-cAMP 1:1, and 48 μM Ruthenium-2-AHA-cAMP) and shaken for 2 h at room temperature. The time-resolved energy transfer is measured by a TRF reader (Evotec Technologies GmbH), equipped with a ND:YAG laser as excitation source. The plate is measured twice with the excitation at 355 nm and at the emission with a delay of 100 ns and a gate of 100 ns, total exposure time 10s at 730 (bandwidth 30 nm) or 645 nm (bandwidth 75 nm), respectively. The assay is classed as functional, cell-based.

In assay [2] the target is Cannabinoid receptor 1 (Homo sapiens, UniProt P21554). The assay is described as §1. The assay is classed as functional, cell-based.

Where only a bound is given, the exact number is not on record here.

Sequence of Cannabinoid receptor 2 (P34972 whole entry): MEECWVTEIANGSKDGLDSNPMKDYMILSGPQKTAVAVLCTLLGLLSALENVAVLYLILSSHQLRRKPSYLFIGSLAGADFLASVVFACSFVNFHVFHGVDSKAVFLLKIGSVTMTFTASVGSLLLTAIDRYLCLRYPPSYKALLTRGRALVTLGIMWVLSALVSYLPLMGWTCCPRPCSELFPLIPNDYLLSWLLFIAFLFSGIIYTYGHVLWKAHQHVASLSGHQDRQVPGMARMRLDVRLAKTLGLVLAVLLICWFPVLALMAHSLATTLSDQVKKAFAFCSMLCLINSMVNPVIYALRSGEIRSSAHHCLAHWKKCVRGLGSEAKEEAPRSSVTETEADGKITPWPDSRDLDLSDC
Sequence of Cannabinoid receptor 1 (P21554 whole entry): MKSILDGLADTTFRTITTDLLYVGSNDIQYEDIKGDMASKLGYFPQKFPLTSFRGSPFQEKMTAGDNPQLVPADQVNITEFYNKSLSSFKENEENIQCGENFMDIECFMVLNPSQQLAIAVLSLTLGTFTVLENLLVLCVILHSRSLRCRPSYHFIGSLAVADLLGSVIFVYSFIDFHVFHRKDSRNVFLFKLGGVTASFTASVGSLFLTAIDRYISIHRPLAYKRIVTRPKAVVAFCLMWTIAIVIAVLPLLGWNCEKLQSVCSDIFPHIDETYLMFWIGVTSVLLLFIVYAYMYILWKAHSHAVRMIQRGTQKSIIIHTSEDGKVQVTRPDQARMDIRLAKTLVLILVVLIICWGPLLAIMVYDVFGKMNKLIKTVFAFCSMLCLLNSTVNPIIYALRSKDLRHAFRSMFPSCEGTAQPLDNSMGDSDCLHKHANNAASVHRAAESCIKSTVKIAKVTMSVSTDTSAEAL

On to `CC(C)(O)[C@H](CC1CC1)NC(=O)c1cnc(C2CC2)c(OCC2CC2)n1`, for which the EC50 is 198 nM in assay [1] and over 10000 nM in assay [2].

As for `O=C(NC1(CO)CCCCC1)c1cnc(N2CC(F)(F)C2)c(OCC2CC2)n1`, the concentration for a half-maximal effect (EC50) in assay [1] is 1.8 nM; in assay [2], over 10000 nM.

`CNC(=O)C(CC1CCC1)NC(=O)c1cnc(N2CC(F)(F)C2)c(OCC2CC2)n1` (centres undefined): the EC50 in assay [1] is 51.7 nM; in assay [2] it was over 10000 nM.

Regarding `O=C(NN1CCCCC1)c1cnc(C2CC2)c(OCC2CC2)n1`, the EC50 in assay [1] was 327 nM; in assay [2] it was over 10000 nM.

The compound `CC(C)(CCc1ccncc1)NC(=O)c1cnc(C2CC2)c(OCC2CC2)n1` yielded an EC50 in assay [1] of 280 nM.
